Experimental data from patent US11464953B2, “Water-soluble microneedle spicules and non-aqueous cosmetic composition containing the same” (PAEAN AESTHETICS INC., priority 2015, dated 2022).

Experiment: HPLC stability test of vitamin C in non-aqueous cosmetics
Format: physicochemical
Settings: maintained for 24 months
Protocol: To confirm the stability of vitamin C (ascorbic acid) contained in non-aqueous cosmetics, the content of the reduced form of ascorbic acid was measured by HPLC for 24 months. The non-aqueous cosmetics in an amount of 0.1 g was collected and distilled water was added to a final volume of 1 mL, and vehemently mixed. Then, the water-soluble ascorbic acid was eluted and the aqueous solution containing ascorbic acid was diluted and used for analysis. The column used was the C18 (4.6×150 mm) and 0.025 M phosphoric acid (pH 2.5) was used for the mobile phase. After adding 10 mM DTT to a 100-fold diluted sample for analysis, the amounts of the reduced form in the sample in which ascorbic acid was all converted to a reduced form and the sample in which 10 mM DTT was not added were compared and thereby the amounts of the ascorbic acid in the reduced form contained in the cosmetics were confirmed. The samples were prepared for 0, 3, 6, 9, 12, 18, and 24 months and analyzed by HPLC. […] The amounts of ascorbic acid in the reduced form was calculated as follows. [table]

Compound: O=C1O[C@H]([C@@H](O)CO)C(O)=C1O [ascorbic acid]
- content of ascorbic acid in the reduced form (Initial AA/Total AA × 100): ≥ 96%
